Patent publication US20110190503A1, “Thiazolopyridin-2-yloxy-phenyl and thiazolopyrazin-2-yloxy-phenyl amines as modulators of leukotriene A4 hydrolase” (Janssen Pharmaceutical NV, priority 2008, published 2011)

Experiments:
[1] = target: T1, recombinant human LTA4 hydrolase (rhLTA4H) (Homo sapiens, UniProt P09960); assay: Recombinant human LTA4 hydrolase assay for LTA4 hydrolase inhibitor activity; assay type: biochemical; conditions: rhLTA4H, LTA4 substrate, LTB4 by immunoassay; single determination or average; read-out: IC50
T1 construct: made in house; host or cells: Spodoptera frugiperda (Sf-9) cells, recombinant baculovirus (pFastBac1)
T1 sequence (P09960 1-611): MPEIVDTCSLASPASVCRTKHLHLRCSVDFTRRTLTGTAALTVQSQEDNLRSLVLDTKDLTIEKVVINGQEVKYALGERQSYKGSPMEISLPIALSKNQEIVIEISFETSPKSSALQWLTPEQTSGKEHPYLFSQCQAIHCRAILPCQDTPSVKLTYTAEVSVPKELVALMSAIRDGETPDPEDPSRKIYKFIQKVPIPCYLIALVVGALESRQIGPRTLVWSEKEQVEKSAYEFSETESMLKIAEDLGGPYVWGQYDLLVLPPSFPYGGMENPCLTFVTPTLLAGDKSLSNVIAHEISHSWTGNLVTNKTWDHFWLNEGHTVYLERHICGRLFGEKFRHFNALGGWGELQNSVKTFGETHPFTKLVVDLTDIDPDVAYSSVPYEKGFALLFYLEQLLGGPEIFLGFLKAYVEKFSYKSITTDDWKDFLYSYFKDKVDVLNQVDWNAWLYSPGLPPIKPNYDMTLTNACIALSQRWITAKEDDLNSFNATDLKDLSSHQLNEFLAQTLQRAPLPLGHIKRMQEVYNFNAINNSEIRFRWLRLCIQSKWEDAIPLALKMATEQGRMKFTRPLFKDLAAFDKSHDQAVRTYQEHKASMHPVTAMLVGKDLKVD
Procedure, shortened: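 Recombinant human LTA4H from baculovirus-infected Sf-9 cells (10 ng) pre-incubated 10 min at rt with compound (10% DMSO in dilutions), then reacted with free-acid LTA4 for 30 min at rt. LTB4 measured by ELISA; IC50 by nonlinear regression. Values are single determinations or averages.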

[2] = tested on: LTB4 production by calcium ionophore-stimulated murine blood; assay: LTB4 production by calcium ionophore-stimulated murine blood for LTA4H inhibitor activity; assay type: cell-based, CD-1 mice; conditions: Mus musculus; murine blood diluted 1 in 15, calcium ionophore A23187, LTB4 by immunoassay; read-out: IC50
Experimental: Assay 2: LTB4 Production by Calcium Ionophore-Stimulated Murine Blood for LTA4H Inhibitor Activity
CD-1 mice were sacrificed, and blood was collected in heparin-containing syringes by cardiac puncture. […] After the microtiter plate contents were incubated for 15 min at 37° C. in a humidified incubator, calcium ionophore A23187 (Sigma Chemical Co., St. Louis, Mo.) was added to each sample well (final concentration=7 μg/mL). The incubation was continued under the same conditions for an additional 30 min to allow LTB4 formation. The reaction was terminated by centrifugation (833×g, 10 min at 4° C.), and supernatants were analyzed for LTB4 by a commercially available enzyme-linked immunoassay (Cayman Chemical Co.) according to the manufacturer's instructions. Positive controls, under essentially identical conditions but without addition of an inhibitor compound, and negative unstimulated controls, containing all assay components except calcium ionophore, were routinely run in each experiment. […] The values presented here are the result of a single determination or an average of two or more determinations, as indicated in parentheses following each value. For compounds tested three or more times, the average value is followed by the standard deviation

| IC50 [1] [nM] | IC50 [2] [nM] | Compound |
| --- | --- | --- |
| 6 | 15 | CC(=O)N1CCC2(CCN(Cc3ccc(Oc4nc5ncccc5s4)cc3)CC2)CC1 [Example 295, 3-Acetyl-9-[4-([1,3]thiazolo[4,5-b]pyridin-2-yloxy)benzyl]-3,9-diazaspiro[5.5]undecane] |
| 7 | 900 | NC(=O)N1CC2CN(Cc3ccc(Oc4nc5ncccc5s4)cc3)CC2C1 (stereo not shown) [Example 277, 5-[4-([1,3]Thiazolo[4,5-b]pyridin-2-yloxy)benzyl]hexahydropyrrolo[3,4-c]pyrrole-2(1H)-carboxamide] |
| 1 | 150 | c1cnc(OC2CCN(CCOc3ccc(Oc4nc5ncccc5s4)cc3)CC2)nc1 [Example 1, 2-(4-{2-[4-(Pyrimidin-2-yloxy)piperidin-1-yl]ethoxy}phenoxy)[1,3]thiazolo[4,5-b]pyridine] |
| 0.8 | 23 | C[C@H]1CCCCN1Cc1ccc(Oc2nc3ncccc3s2)cc1 [Example 90, 2-(4-{[(2S)-2-Methylpiperidin-1-yl]methyl}phenoxy)[1,3]thiazolo[4,5-b]pyridine] |
| 2.5 | 110 | CCOC(=O)C1CCN(Cc2ccc(Oc3nc4ncccc4s3)cc2)CC1 [Example 130, Ethyl 1-[4-([1,3]thiazolo[4,5-b]pyridin-2-yloxy)benzyl]piperidine-4-carboxylate] |
| 72 | 350 | NC(=O)N1CC2CN(CCc3ccc(Oc4nc5cccnc5s4)cc3)CC2C1 (stereo not shown) [Example 70, 5-{2-[4-([1,3]Thiazolo[5,4-b]pyridin-2-yloxy)phenyl]ethyl}hexahydropyrrolo[3,4-c]pyrrole-2(1H)-carboxamide] |
| 24 | 37 | FC1CCN(Cc2ccc(Oc3nc4ncccc4s3)cc2)CC1 [Example 96, 2-{4-[(4-Fluoropiperidin-1-yl)methyl]phenoxy}[1,3]thiazolo[4,5-b]pyridine] |
| 70 | 380 | c1ccc(SC2CCN(CCOc3ccc(Oc4nc5ncccc5s4)cc3)CC2)cc1 [Example 3, 2-(4-{2-[4-(Phenylsulfanyl)piperidin-1-yl]ethoxy}phenoxy)[1,3]thiazolo[4,5-b]pyridine] |
| 83 | 580 | c1cnc2sc(Oc3ccc(OCCN4CCC(c5ccncc5)CC4)cc3)nc2c1 [Example 42, 2-{4-[2-(4-Pyridin-4-ylpiperidin-1-yl)ethoxy]phenoxy}[1,3]thiazolo[5,4-b]pyridine] |
| 7.8 | 1070 | O=C(O)C1CCN(Cc2ccc(Oc3nc4ncccc4s3)cc2)CC1 [Example 131, 1-[4-([1,3]Thiazolo[4,5-b]pyridin-2-yloxy)benzyl]piperidine-4-carboxylic acid] |
| 6 | 9 | c1cncc(OC2CCN(Cc3ccc(Oc4nc5ncccc5s4)cc3)CC2)c1 [Example 98, 2-(4-{[4-(Pyridin-3-yloxy)piperidin-1-yl]methyl}phenoxy)[1,3]thiazolo[4,5-b]pyridine] |
| 6 | 31 | CS(=O)(=O)NC1CCN(CCOc2ccc(Oc3nc4ncccc4s3)cc2)CC1 [Example 163, N-[1-(2-{[4-([1,3]Thiazolo[4,5-b]pyridin-2-yloxy)phenyl]oxy}ethyl)piperidin-4-yl]methanesulfonamide] |
| 17 | 340 | NC(=O)N1CC2CN(CCOc3ccc(Oc4nc5ncccc5s4)cc3)CC2C1 (stereo not shown) [Example 19, 5-{2-[4-([1,3]Thiazolo[4,5-b]pyridin-2-yloxy)phenoxy]ethyl}hexahydropyrrolo[3,4-c]pyrrole-2(1H)-carboxamide] |
| 82 | 280 | c1ccc(SC2CCN(CCOc3ccc(Oc4nc5ncccc5s4)cc3)CC2)nc1 [Example 291, 2-(4-{2-[4-(Pyridin-2-ylsulfanyl)piperidin-1-yl]ethoxy}phenoxy)[1,3]thiazolo[4,5-b]pyridine] |
| 8 | 5.6 | OC1CCN(Cc2ccc(Oc3nc4ncccc4s3)cc2)CC1 [Example 137, 1-[4-([1,3]Thiazolo[4,5-b]pyridin-2-yloxy)benzyl]piperidin-4-ol] |
| 23 | 5 | CC(=O)N1C[C@@H]2C[C@H]1CN2Cc1ccc(Oc2nc3ncc(F)cc3s2)cc1 [Example 128, 2-(4-{[(1S,4S)-5-Acetyl-2,5-diazabicyclo[2.2.1]hept-2-yl]methyl}phenoxy)-6-fluoro[1,3]thiazolo[4,5-b]pyridine] |
| 13 | 180 | c1cnc2nc(Oc3ccc(OCCN4CCC(c5ccncc5)CC4)cc3)sc2c1 [Example 29, 2-{4-[2-(4-Pyridin-4-ylpiperidin-1-yl)ethoxy]phenoxy}[1,3]thiazolo[4,5-b]pyridine] |
| 9.6 | 100 | c1cnc2nc(Oc3ccc(CCN4CCC(c5ccncc5)CC4)cc3)sc2c1 [Example 65, 2-{4-[2-(4-Pyridin-4-ylpiperidin-1-yl)ethyl]phenoxy}[1,3]thiazolo[4,5-b]pyridine] |
| 71 | 1300 | Cc1ccc(SC2CCN(CCOc3ccc(Oc4nc5ncccc5s4)cc3)CC2)cc1 [Example 255, 2-[4-(2-{4-[(4-Methylphenyl)sulfanyl]piperidin-1-yl}ethoxy)phenoxy][1,3]thiazolo[4,5-b]pyridine] |
| 97 | 450 | Cc1ccnc2nc(Oc3ccc(OCCN4CC5CN(C(=O)C6CCC6)CC5C4)cc3)sc12 (stereo not shown) [Example 146, 2-(4-{2-[5-(Cyclobutylcarbonyl)hexahydropyrrolo[3,4-c]pyrrol-2(1H)-yl]ethoxy}phenoxy)-7-methyl[1,3]thiazolo[4,5-b]pyridine] |
| – | 550 | Clc1cnc2nc(Oc3ccc(CN4CCCCC4)cc3)sc2c1 [Example 279, 6-Chloro-2-(4-piperidin-1-ylmethyl-phenoxy)[1,3]thiazolo[4,5-b]pyridine] |

| Compound | IC50 [1] [nM] | IC50 [2] [nM] |
| --- | --- | --- |
| NC(=O)N1C[C@H]2CC[C@@H](C1)N2CCc1ccc(Oc2nc3cccnc3s2)cc1 [Example 71, meso-8-{2-[4-([1,3]Thiazolo[5,4-b]pyridin-2-yloxy)phenyl]ethyl}-3,8-diazabicyclo[3.2.1]octane-3-carboxamide] | 81 | 280 |
| CC(=O)N1[C@@H]2CC[C@H]1C[C@@H](NCCOc1ccc(Oc3nc4ncccc4s3)cc1)C2 [Example 159, meso-(3-endo)-8-acetyl-N-{2-[4-([1,3]thiazolo[4,5-b]pyridin-2-yloxy)phenoxy]ethyl}-8-azabicyclo[3.2.1]octan-3-amine] | 9 | 82 |
| OC1(c2ccccc2)CCN(CCOc2ccc(Oc3nc4cccnc4s3)cc2)CC1 [Example 40, 4-Phenyl-1-{2-[4-([1,3]thiazolo[5,4-b]pyridin-2-yloxy)phenoxy]ethyl}piperidin-4-ol] | 99 | 950 |
| CC(=O)N[C@H]1C[C@H]2CC[C@@H](C1)N2Cc1ccc(Oc2nc3cccnc3s2)cc1 [Example 119, meso-N-{(3-endo)-8-[4-([1,3]Thiazolo[5,4-b]pyridin-2-yloxy)benzyl]-8-azabicyclo[3.2.1]oct-3-yl}acetamide] | 70 | 770 |
| CC(=O)N[C@@H]1C[C@H]2CC[C@@H](C1)N2CCOc1ccc(Oc2nc3cccnc3s2)cc1 [Example 153, meso-N-[(3-exo)-8-{2-[4-([1,3]Thiazolo[5,4-b]pyridin-2-yloxy)phenoxy]ethyl}-8-azabicyclo[3.2.1]oct-3-yl]acetamide] | 35 | 360 |
| OC1(c2ccc(Cl)cc2)CCN(CCOc2ccc(Oc3nc4ncccc4s3)cc2)CC1 [Example 30, 4-(4-Chlorophenyl)-1-{2-[4-([1,3]thiazolo[4,5-b]pyridin-2-yloxy)phenoxy]ethyl}piperidin-4-ol] | 30 | 150 |
| NC(=O)N[C@H]1C[C@H]2CC[C@@H](C1)N2CCc1ccc(Oc2nc3cccnc3s2)cc1 [Example 72, meso-1-[(3-endo)-8-{2-[4-([1,3]Thiazolo[5,4-b]pyridin-2-yloxy)phenyl]ethyl}-8-azabicyclo[3.2.1]oct-3-yl]urea] | 47 | 1040 |
